The compounds below were run against T1, human NaV1.8 (Homo sapiens, UniProt Q9Y5Y9) (assay: Electrophysiology: automated whole-cell voltage-clamp (patch clamp, Qube384) recordings of sodium currents in HEK-NaV1.8 cells). Conditions: potency data either taken from inactivated or resting state, read-out: Potency category (human NaV1.8 IC50).
T1 construct: The following NaV1.8 recombinant cell line was used for recordings: HEK-NaV1.8 (NM 006514.1); expressed in transfected cells; host or cells: HEK (recombinant cell line HEK-NaV1.8)
Format: cell-based
Summary of the method: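 Automated whole-cell patch clamp at room temperature on HEK cells expressing human NaV1.8, with 0.3% DMSO vehicle controls. State-dependent protocol from −120 mV tested resting (P1) and half-inactivated (P2, 4 s at V1/2) channels, plus 40-pulse trains at 10 and 20 Hz. Values after ~12 min compound exposure were normalised to baseline and corrected for vehicle run-down; IC50 from a 4-parameter logistic fit, taken from inactivated or resting state.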

T1 sequence (Q9Y5Y9 whole entry): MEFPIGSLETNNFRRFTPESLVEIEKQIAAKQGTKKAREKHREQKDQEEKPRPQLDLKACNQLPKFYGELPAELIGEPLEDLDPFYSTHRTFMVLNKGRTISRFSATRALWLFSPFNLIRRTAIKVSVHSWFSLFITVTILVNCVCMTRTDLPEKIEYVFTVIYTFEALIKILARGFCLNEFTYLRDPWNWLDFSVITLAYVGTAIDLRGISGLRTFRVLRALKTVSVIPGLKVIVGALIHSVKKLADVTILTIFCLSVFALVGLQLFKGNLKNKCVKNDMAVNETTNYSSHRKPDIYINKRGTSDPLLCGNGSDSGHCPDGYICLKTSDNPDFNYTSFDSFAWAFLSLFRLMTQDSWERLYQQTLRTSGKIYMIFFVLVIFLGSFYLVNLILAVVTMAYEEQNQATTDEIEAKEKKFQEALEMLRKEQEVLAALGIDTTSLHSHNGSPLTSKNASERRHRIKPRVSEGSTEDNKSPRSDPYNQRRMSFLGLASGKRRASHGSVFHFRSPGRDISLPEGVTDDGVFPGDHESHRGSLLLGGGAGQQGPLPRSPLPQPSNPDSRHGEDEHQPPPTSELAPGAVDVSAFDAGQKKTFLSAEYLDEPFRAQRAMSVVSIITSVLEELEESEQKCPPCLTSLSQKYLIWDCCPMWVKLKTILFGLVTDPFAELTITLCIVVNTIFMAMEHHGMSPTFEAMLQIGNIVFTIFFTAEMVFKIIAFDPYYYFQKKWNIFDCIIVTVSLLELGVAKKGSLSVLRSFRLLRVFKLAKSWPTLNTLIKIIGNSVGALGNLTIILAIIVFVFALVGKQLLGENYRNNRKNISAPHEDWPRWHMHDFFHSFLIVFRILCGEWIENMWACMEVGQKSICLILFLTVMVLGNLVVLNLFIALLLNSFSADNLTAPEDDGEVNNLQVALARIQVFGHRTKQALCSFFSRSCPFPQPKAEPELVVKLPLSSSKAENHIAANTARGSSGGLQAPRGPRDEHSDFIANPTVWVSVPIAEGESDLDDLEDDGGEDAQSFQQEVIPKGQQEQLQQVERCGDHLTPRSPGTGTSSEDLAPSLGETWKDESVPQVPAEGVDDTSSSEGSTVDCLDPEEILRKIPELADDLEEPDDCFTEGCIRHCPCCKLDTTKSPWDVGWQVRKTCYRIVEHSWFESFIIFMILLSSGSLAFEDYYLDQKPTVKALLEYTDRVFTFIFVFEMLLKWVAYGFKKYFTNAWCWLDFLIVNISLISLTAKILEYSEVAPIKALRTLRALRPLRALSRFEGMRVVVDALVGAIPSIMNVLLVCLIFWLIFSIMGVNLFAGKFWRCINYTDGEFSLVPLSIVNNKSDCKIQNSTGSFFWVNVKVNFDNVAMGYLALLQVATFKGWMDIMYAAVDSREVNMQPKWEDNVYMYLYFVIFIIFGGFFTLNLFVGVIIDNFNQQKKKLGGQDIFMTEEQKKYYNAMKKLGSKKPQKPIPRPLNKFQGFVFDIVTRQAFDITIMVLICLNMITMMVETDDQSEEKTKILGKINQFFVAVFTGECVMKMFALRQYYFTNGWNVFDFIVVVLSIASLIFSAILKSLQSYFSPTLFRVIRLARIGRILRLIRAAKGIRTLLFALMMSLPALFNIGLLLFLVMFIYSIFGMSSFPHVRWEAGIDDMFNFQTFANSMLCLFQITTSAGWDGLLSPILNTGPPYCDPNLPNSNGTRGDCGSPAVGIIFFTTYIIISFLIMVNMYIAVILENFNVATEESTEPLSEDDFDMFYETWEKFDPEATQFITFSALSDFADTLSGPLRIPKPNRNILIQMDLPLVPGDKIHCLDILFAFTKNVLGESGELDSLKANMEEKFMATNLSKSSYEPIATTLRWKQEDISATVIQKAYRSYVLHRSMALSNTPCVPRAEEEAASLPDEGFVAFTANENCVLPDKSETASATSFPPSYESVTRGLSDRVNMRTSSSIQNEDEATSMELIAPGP
T1 sequence (Q9NY72 23-215 partner): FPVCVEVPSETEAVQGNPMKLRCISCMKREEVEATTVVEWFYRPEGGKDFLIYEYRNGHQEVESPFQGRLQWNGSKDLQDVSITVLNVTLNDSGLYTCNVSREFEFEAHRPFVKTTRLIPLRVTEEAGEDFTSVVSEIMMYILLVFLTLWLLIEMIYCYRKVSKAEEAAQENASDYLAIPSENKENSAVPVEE

Row | SMILES | IC50 [nM]
1 | Cc1c(C(C)(F)F)nn(CC2CCC(F)(F)C2)c1C(=O)Nc1ccnc(S(N)(=O)=O)c1 (centres unmarked) [SC-211, 1-((3,3-difluorocyclopentyl)methyl)-3-(1,1-difluoroethyl)-4-methyl-N-(2-sulfamoylpyridin-4-yl)-1H-pyrazole-5-carboxamide] | ≤ 100
2 | Cc1c(C(C)(F)F)nn(CC2(C)CCC(F)(F)C2)c1C(=O)Nc1ccnc(S(C)(=O)=O)c1 (stereo not drawn) [SC-213, 1-((3,3-difluoro-1-methyleyclopentyl)methyl)-3-(1,l-difluoroethyl)-4-methyl-N-(2-(methylsulfonyl)pyridin-4-yl)-1H-pyrazole-5-carboxamide] | ≤ 100
3 | Cc1c(C(C)(F)F)nn(CC2CC(F)(F)C2)c1C(=O)Nc1ccnc(S(N)(=O)=O)c1 [SC-215, 1-((3,3-difluorocyclobutyl)methyl)-3-(1,1-difluoroethyl)-4-methyl-N-(2-sulfamoylpyridin-4-yl)-lH-pyrazole-5-carboxamide] | ≤ 100
4 | NC(=O)c1cc(NC(=O)c2c(C(F)F)c(C3CC3)nn2CC2CCC(F)(F)C2)ccn1 (centres unmarked) [SC-216, 4-(3-cyclopropyl-1-((3,3-difluorocyclopentyl)methyl)-4-(difluoromethyl)-1H-pyrazole-5-carboxamido)picolinamide] | ≤ 100
5 | CCc1nn(CC2CCC(F)(F)C2)c(C(=O)Nc2ccnc(C(N)=O)c2)c1C(F)(F)F (centres unmarked) [SC-218, 4-(1-((3,3-difluorocyclopentyl)methyl)-3-ethyl-4-(trifluoromethyl)-1H-pyrazole-5-carboxamido)picolinamide] | ≤ 100
6 | Cc1c(C(C)(F)F)nn(CC2(C(F)(F)F)CC(F)(F)C2)c1C(=O)Nc1ccnc(S(C)(=O)=O)c1 [SC-220, 1-((3,3-difluoro-1-(trifluoromethyl)cyclobutyl)methyl)-3-(1,l-difluoroethyl)-4-methyl-N-(2-(methylsulfonyl)pyridin-4-yl)-1H-pyrazole-5-carboxamide] | ≤ 100
7 | Cc1c(C(C)(F)F)nn([C@@H](C)C2CC(F)(F)C2)c1C(=O)Nc1ccnc(S(C)(=O)=O)c1 [SC-222a] | 100 to 1000
8 | Cc1c(C(C)(F)F)nn([C@H](C)C2CC(F)(F)C2)c1C(=O)Nc1ccnc(S(C)(=O)=O)c1 [SC-222b] | 1000 to 10000
9 | Cc1c(C(C)(F)F)nn(CC2C[C@@H](F)[C@@H](F)C2)c1C(=O)Nc1ccnc(S(C)(=O)=O)c1 (some centres unmarked) [SC-224, 1-((3,4-difluorocyclopentyl)methyl)-3-(1,1-difluoroethyl)-4-methyl-N-(2-(methylsulfonyl)pyridin-4-yl)-1H-pyrazole-5-carboxamide] | 100 to 1000
10 | COc1nn(CC2CCC(F)(F)C2)c(C(=O)Nc2ccnc(S(C)(=O)=O)c2)c1C(F)(F)F (centres unmarked) [SC-225, 1-((3,3-difluorocyclopentyl)methyl)-3-methoxy-N-(2-(methylsulfonyl)pyridin-4-yl)-4-(trifluoromethyl)-1H-pyrazole-5-carboxamide] | ≤ 100
11 | CS(=O)(=O)c1cccc(NC(=O)c2ccnn2CC2CCCCC2)c1 [SC-226, 1-(cyclohexylmethyl)-N-(3-(methyIsulfonyl)phenyl)-1H-pyrazole-5-carboxamide] | 1000 to 10000
12 | CS(=O)(=O)c1cccc(NC(=O)c2c(C(F)F)cnn2CC2CCCCC2)c1 [SC-229, 1-(cyclohexylmethyl)-4-(difluoromethyl)-N-(3-(methylsulfonyl)phenyl)-1H-pyrazole-5-carboxamide] | ≤ 100
13 | NS(=O)(=O)c1cccc(NC(=O)c2c(C(F)(F)F)c(C3CC3)nn2CC2CCC(F)(F)CC2)c1 [SC-230, 3-cyclopropyl-1-((4,4-difluorocyclohexyl)methyl)-N-(3-sulfamoylphenyl)-4-(trifluoromethyl)-lH-pyrazole-5-carboxamide] | ≤ 100
14 | Cc1nn(CC2CCC(F)(F)CC2)c(C(=O)Nc2ccnc(C#N)c2)c1C [SC-231, N-(2-cyanopyridin-4-yl)-1-((4,4-difluorocyclohexyl)methyl)-3,4-dimethyl-1H-pyrazole-5-carboxamide] | 1000 to 10000
15 | CC1(Cn2ncc(C(F)(F)F)c2C(=O)Nc2cccc(S(C)(=O)=O)c2)CCCCC1 [SC-232, 1-((1-methylcyclohexyl)methyl)-N-(3-(methylsulfonyl)phenyl)-4-(trifluoromethyl)-1H-pyrazole-5-carboxamide] | ≤ 100
16 | CS(=O)(=O)c1cccc(NC(=O)c2c(C(F)(F)F)cnn2CC2(F)CCCCC2)c1 [SC-233, 1-((1-fluorocyclohexyl)methyl)-N-(3-(methylsulfonyl)phenyl)-4-(trifluoromethyl)-1H-pyrazole-5-carboxamide] | 100 to 1000
17 | Cc1nn(CC2COC2)c(C(=O)Nc2cccc(S(C)(=O)=O)c2)c1C(F)(F)F [SC-234, 3-methyl-N-(3-(methyIsulfonyl)phenyl)-1-(oxetan-3-yImethyl)-4-(trifluoromethyl)-1H-pyrazole-5-carboxamide] | 1000 to 10000
18 | NS(=O)(=O)c1cccc(NC(=O)c2c(C(F)(F)F)cnn2CC2CCCC2(F)F)c1 (centres unmarked) [SC-235, 1-((2,2-difluorocyclopentyl)methyl)-N-(3-sulfamoylphenyl)-4-(trifluoromethyl)-1H-pyrazole-5-carboxamide] | ≤ 100
19 | Cc1nn(CC2CCC(F)(F)CC2)c(C(=O)Nc2cccc(S(N)(=O)=O)c2)c1Cl [SC-236, 4-chloro-1-((4,4-difluorocyclohexyl)methyl)-3-methyl-N-(3-sulfamoylphenyl)-1H-pyrazole-5-carboxamide] | ≤ 100
20 | Cc1nn(CC2CCO2)c(C(=O)Nc2cccc(S(C)(=O)=O)c2)c1C(F)(F)F (centres unmarked) [SC-237, 3-methyl-N-(3-(methyIsulfonyl)phenyl)-1-(oxetan-2-yimethyl)-4-(trifluoromethyl)-1H-pyrazole-5-carboxamide] | 1000 to 10000
21 | Cc1nn(CC2CCCCC2)c(C(=O)Nc2ccc(F)c(S(N)(=O)=O)c2)c1C(F)(F)F [SC-238, 1-(cyclohexyimethyl)-N-(4-fluoro-3-sulfamoylphenyl)-3-methyl-4-(trifluoromethyl)-1H-pyrazole-5-carboxamide] | ≤ 100
22 | Cc1c(Cl)nn(CC2CCC(F)(F)CC2)c1C(=O)Nc1ccnc(C(N)=O)c1 [SC-239, 4-(3-chloro-1-((4,4-difluorocyclohexyl)methyl)-4-methyl-1H-pyrazole-5-carboxamido)picolinamide] | 100 to 1000
23 | Cc1nn(CC2CCC(F)(F)CC2)c(C(=O)Nc2cncc(S(C)(=O)=O)c2)c1C(F)(F)F [SC-241, 1-((4,4-difluorocyclohexyl)methyl)-3-methyl-N-(5-(methyisulfonyl)pyridin-3-yl)-4-(trifluoromethyl)-1H-pyrazole-5-carboxamide] | 100 to 1000
24 | Cc1c(C(F)(F)F)nn(CC2CCC(F)(F)CC2)c1C(=O)Nc1cncc(S(N)(=O)=O)c1 [SC-242, 1-((4,4-difluorocyclohexyl)methyl)-4-methyl-N-(5-sulfamoylpyridin-3-yl)-3-(trifluoromethyl)-1H-pyrazole-5-carboxamide] | 100 to 1000
25 | Cc1c(C(F)(F)F)nn(CC2CCC(F)(F)CC2)c1C(=O)Nc1cccc(S(N)(=O)=O)n1 [SC-243, 1-((4,4-difluorocyclohexyl)methyl)-4-methyl-N-(6-sulfamoylpyridin-2-yl)-3-(trifluoromethyl)-1H-pyrazole-5-carboxamide] | 100 to 1000
26 | Cc1nn(CC2CCCCC2)c(C(=O)Nc2cccc(S(N)(=O)=O)c2)c1C(F)(F)F [SC-244, 1-(cyclohexyimethyl)-3-methyl-N-(3-sulfamoylphenyl)-4-(trifluoromethyl)-1H-pyrazole-5-carboxamide] | ≤ 100

Source: patent US11999699B2, “Substituted pyrazole amides” (GRUENENTHAL GMBH, priority 2021, dated 2024)
